Data as given in patent US20250312462A1, “PAK1 DEGRADERS AND METHODS OF USE THEREOF” (INSTITUTE FOR CANCER RESEARCH D/B/A THE RESEARCH INSTITUTE …, priority 2022, published 2025).

What was measured:
Test in all cases: KINOMEscan
Settings in all cases: read-out: Percent Control
[1] = biological target: PAK4 (Homo sapiens, UniProt O96013)
Procedure: (§1) The kinase engagement assay (KINOMEscan®) was performed by DiscoverX assessing binding abilities toward a set of kinases.

[2] = biological target: T1, CDC2L5 (Homo sapiens, UniProt Q14004); assay type: binding
T1 construct: purchased DiscoverX

[3] = biological target: YSK1 (Homo sapiens, UniProt O00506)
Procedure: as §1

[4] = biological target: CLK1 (Homo sapiens, UniProt P49759)
Procedure: as §1

[5] = biological target: PKMYT1 (Homo sapiens, UniProt Q99640)
Sequence of PKMYT1 (Q99640 whole entry): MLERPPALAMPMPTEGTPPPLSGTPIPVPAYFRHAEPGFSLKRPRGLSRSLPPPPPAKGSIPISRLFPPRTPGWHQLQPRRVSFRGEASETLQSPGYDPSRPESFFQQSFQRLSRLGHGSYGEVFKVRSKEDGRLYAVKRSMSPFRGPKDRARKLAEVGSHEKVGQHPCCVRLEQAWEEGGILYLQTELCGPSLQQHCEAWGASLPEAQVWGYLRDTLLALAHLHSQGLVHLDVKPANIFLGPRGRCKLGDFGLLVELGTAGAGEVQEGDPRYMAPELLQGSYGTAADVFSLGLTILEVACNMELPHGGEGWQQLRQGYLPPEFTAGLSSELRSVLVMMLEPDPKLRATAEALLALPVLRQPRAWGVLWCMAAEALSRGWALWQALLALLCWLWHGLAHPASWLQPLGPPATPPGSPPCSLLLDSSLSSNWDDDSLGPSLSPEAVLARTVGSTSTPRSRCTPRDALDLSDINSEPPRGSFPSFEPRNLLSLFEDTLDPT
Procedure: as §1

[6] = biological target: FGFR1 (Homo sapiens, UniProt P11362)
Procedure: as §1

[7] = biological target: PIK3C2B (Homo sapiens, UniProt O00750)
Procedure: as §1

[8] = biological target: KIT(V559D) (Homo sapiens, UniProt P10721, V559D)
Procedure: as §1

[9] = biological target: FLT3(N841I) (Homo sapiens, UniProt P36888, N841I)
Procedure: as §1

[10] = biological target: MLCK (Homo sapiens, UniProt Q32MK0)
Sequence of MLCK (Q32MK0 whole entry): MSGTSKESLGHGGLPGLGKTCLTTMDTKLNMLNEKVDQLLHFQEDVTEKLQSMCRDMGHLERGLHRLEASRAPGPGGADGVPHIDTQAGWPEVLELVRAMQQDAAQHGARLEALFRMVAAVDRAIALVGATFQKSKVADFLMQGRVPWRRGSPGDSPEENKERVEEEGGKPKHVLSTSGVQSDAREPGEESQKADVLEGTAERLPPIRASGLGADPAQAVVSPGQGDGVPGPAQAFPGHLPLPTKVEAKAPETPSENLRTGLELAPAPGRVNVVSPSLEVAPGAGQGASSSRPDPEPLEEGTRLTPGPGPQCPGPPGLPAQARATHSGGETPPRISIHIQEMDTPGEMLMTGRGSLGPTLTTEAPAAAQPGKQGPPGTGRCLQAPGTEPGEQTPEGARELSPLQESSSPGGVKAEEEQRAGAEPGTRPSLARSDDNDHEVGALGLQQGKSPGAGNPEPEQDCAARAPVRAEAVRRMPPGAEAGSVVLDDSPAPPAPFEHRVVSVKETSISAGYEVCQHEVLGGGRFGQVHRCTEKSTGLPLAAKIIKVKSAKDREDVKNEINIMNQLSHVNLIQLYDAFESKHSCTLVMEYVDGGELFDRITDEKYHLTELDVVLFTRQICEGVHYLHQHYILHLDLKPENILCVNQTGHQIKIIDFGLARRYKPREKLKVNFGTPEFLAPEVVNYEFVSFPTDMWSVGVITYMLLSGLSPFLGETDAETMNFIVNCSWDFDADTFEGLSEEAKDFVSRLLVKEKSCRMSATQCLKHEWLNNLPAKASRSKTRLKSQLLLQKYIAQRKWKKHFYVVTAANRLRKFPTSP
Procedure: as §1

[11] = biological target: ZAP70 (Homo sapiens, UniProt P43403)
Procedure: as §1

[12] = biological target: RET(M918T) (Homo sapiens, UniProt P07949, M918T)
Procedure: as §1

[13] = biological target: MKNK2 (Homo sapiens, UniProt Q9HBH9)
Procedure: as §1

[14] = biological target: MAP3K4 (Homo sapiens, UniProt Q9Y6R4)
Sequence of MAP3K4 (Q9Y6R4 whole entry): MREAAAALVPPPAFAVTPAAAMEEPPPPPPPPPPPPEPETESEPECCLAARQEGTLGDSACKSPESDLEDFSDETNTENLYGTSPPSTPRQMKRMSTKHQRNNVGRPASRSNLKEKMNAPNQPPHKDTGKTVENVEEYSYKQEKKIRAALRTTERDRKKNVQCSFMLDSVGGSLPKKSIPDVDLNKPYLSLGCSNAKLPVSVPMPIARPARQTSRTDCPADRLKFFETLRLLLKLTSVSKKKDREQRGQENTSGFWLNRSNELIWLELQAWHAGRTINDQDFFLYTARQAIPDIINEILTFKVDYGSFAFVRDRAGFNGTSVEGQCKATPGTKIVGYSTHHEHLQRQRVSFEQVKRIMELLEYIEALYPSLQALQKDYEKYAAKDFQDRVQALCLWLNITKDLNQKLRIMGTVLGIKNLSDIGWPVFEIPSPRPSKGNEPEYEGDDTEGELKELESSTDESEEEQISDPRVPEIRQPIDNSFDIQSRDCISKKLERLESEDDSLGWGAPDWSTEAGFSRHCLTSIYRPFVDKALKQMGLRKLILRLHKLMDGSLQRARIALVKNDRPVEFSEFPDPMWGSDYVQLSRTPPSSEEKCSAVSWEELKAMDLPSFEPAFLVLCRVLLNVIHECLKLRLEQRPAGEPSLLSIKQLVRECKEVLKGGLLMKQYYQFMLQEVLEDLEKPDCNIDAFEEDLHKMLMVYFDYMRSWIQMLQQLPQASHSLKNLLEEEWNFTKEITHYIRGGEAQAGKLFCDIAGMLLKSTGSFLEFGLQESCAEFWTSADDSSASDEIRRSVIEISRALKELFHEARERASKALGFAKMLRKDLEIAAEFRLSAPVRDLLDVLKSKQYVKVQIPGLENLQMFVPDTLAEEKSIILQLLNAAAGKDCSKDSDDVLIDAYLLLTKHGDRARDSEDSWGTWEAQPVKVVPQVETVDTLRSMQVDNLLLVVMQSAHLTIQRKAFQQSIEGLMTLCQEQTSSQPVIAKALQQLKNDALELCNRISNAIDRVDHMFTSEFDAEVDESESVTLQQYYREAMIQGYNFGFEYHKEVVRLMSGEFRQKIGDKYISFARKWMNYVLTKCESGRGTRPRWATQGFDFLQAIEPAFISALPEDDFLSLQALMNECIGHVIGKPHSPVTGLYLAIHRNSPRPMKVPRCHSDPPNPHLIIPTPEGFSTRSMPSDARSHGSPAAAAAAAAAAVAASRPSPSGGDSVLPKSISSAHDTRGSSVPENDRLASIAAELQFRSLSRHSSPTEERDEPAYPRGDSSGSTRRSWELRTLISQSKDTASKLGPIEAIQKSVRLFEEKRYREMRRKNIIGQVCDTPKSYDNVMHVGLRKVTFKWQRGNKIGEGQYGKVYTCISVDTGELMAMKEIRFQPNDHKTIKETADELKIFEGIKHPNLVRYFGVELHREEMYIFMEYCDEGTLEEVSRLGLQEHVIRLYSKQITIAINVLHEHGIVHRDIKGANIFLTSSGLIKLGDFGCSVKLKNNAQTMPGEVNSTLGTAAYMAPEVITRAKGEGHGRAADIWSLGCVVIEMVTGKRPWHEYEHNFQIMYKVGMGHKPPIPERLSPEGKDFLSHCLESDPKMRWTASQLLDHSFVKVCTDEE
Procedure: as §1

[15] = biological target: SGK2 (Homo sapiens, UniProt Q9HBY8)
Procedure: as §1

[16] = biological target: ABL1(T315I)-phosphorylated (Homo sapiens, UniProt P00519, T315I)
Procedure: as §1

[17] = biological target: TNIK (Homo sapiens, UniProt Q9UKE5)
Procedure: as §1

[18] = biological target: HASPIN (Homo sapiens, UniProt Q8TF76)
Procedure: as §1

[19] = biological target: RSK4(Kin.Dom.1-N-terminal) (Homo sapiens, UniProt Q9UK32)
Sequence of RSK4(Kin.Dom.1-N-terminal) (Q9UK32 73-330 limits assumed): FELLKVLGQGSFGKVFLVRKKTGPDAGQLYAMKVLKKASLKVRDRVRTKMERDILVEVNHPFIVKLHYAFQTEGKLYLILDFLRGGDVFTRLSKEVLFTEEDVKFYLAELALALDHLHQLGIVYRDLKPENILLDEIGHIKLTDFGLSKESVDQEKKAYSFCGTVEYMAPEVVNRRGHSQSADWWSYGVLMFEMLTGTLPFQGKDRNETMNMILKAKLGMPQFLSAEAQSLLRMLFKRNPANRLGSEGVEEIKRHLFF
Procedure: as §1

[20] = biological target: MTOR (Homo sapiens, UniProt P42345)
Procedure: as §1

[21] = biological target: LZK (Homo sapiens, UniProt O43283)
Procedure: as §1

[22] = biological target: FLT3(D835V) (Homo sapiens, UniProt P36888, D835V)
Procedure: as §1

[23] = biological target: CDK8 (Homo sapiens, UniProt P49336)
Procedure: as §1

[24] = biological target: FGFR3 (Homo sapiens, UniProt P22607)
Procedure: as §1

[25] = biological target: CDKL2 (Homo sapiens, UniProt Q92772)
Sequence of CDKL2 (Q92772 whole entry): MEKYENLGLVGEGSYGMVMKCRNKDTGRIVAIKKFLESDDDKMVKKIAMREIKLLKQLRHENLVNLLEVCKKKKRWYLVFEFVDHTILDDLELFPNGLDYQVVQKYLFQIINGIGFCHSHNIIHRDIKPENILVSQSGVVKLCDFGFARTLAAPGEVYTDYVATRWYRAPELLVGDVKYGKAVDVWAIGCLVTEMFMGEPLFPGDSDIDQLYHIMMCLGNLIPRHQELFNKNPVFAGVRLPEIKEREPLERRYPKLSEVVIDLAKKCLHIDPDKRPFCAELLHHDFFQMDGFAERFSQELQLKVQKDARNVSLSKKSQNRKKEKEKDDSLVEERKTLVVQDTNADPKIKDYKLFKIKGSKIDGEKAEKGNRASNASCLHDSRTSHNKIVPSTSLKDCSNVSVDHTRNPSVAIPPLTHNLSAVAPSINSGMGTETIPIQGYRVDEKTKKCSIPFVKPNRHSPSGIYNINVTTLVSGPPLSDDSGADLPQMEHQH
Procedure: as §1

[26] = biological target: MKNK1 (Homo sapiens, UniProt Q9BUB5)
Procedure: as §1

[27] = biological target: ACVR1 (Homo sapiens, UniProt Q04771)
Procedure: as §1

[28] = biological target: BRAF(V600E) (Homo sapiens, UniProt P15056, V600E)
Procedure: as §1

[29] = biological target: PKN1 (Homo sapiens, UniProt Q16512)
Sequence of PKN1 (Q16512 whole entry): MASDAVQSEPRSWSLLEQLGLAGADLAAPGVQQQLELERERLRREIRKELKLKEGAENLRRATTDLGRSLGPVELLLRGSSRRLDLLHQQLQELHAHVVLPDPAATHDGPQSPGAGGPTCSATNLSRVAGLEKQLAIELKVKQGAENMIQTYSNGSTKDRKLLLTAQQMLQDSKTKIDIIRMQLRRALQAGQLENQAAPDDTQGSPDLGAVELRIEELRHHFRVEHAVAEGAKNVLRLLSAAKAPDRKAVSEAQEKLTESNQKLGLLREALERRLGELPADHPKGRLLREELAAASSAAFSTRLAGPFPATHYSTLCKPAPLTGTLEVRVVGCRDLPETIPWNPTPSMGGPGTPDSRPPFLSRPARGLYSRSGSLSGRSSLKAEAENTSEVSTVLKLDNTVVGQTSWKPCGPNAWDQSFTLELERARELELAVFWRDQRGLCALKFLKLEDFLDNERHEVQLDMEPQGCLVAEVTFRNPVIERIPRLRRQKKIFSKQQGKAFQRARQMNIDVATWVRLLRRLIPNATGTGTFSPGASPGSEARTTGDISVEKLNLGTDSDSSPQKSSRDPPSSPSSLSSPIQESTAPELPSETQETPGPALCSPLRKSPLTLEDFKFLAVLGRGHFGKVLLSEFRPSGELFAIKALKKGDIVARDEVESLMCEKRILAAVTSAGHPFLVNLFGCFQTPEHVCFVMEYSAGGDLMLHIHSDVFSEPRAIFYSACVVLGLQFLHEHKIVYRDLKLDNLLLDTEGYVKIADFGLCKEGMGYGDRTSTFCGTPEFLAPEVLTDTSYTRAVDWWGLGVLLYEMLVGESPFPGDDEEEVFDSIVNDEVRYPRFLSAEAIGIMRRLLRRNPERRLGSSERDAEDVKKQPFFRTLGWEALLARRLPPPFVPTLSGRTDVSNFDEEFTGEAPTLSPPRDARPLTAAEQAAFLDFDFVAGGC
Procedure: as §1

[30] = biological target: PLK4 (Homo sapiens, UniProt O00444)
Procedure: as §1

[31] = biological target: NEK4 (Homo sapiens, UniProt P51957)
Procedure: as §1

[32] = biological target: VRK2 (Homo sapiens, UniProt Q86Y07)
Procedure: as §1

[33] = biological target: MEK1 (Homo sapiens, UniProt Q02750)
Procedure: as §1

[34] = biological target: PIK3CA(E545A) (Homo sapiens, UniProt P42336, E545A)
Procedure: as §1

[35] = biological target: GRK1 (Homo sapiens, UniProt Q15835)
Procedure: as §1

[36] = biological target: JNK2 (Homo sapiens, UniProt P45984)
Sequence of JNK2 (P45984 whole entry): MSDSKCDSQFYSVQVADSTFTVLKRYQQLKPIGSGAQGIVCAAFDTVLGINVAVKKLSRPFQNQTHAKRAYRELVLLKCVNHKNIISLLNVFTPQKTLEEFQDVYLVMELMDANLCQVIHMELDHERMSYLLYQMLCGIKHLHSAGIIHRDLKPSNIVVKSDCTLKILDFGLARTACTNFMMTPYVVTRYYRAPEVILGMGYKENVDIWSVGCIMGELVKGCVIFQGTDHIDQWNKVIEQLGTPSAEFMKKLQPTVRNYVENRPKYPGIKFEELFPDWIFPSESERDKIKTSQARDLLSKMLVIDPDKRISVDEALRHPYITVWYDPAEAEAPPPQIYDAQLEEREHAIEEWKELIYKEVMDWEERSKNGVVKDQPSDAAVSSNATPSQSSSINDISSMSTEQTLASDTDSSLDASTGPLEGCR
Procedure: as §1

[37] = biological target: SgK110 (Homo sapiens, UniProt P0C264)
Procedure: as §1

[38] = biological target: PRKCI (Homo sapiens, UniProt P41743)
Procedure: as §1

O=C1CCC(N2C(=O)c3cccc(NCCCCCCCCNC(=O)N4CC[C@H](NC5=Nc6cc(F)ccc6N(CC(F)F)c6ccc(Cl)cc65)C4)c3C2=O)C(=O)N1 (stereo partly drawn) [BJG-05-039, (3S)-3-((2-Chloro-5-(2,2-difluoroethyl)-8-fluoro-5H-dibenzo[b,e][1,4]diazepin-11-yl)amino)-N-(8-((2-(2,6-dioxopiperidin-3-yl)-1,3-dioxoisoindolin-4-yl)amino)octyl)pyrrolidine-1-carboxamide]
remaining binding at 10 µM [1]: 75% | remaining binding at 10 µM [2]: 82% | remaining binding at 10 µM [3]: 83% | remaining binding at 10 µM [4]: 57% | remaining binding at 10 µM [5]: 54% | remaining binding at 10 µM [6]: 97% | remaining binding at 10 µM [7]: 90% | remaining binding at 10 µM [8]: 81% | remaining binding at 10 µM [9]: 100% | remaining binding at 10 µM [10]: 66% | remaining binding at 10 µM [11]: 100% | remaining binding at 10 µM [12]: 90% | remaining binding at 10 µM [13]: 94% | remaining binding at 10 µM [14]: 95% | remaining binding at 10 µM [15]: 76% | remaining binding at 10 µM [16]: 100% | remaining binding at 10 µM [17]: 48% | remaining binding at 10 µM [18]: 90% | remaining binding at 10 µM [19]: 95% | remaining binding at 10 µM [20]: 74% | remaining binding at 10 µM [21]: 82% | remaining binding at 10 µM [22]: 76% | remaining binding at 10 µM [23]: 80% | remaining binding at 10 µM [24]: 85% | remaining binding at 10 µM [25]: 77% | remaining binding at 10 µM [26]: 100% | remaining binding at 10 µM [27]: 89% | remaining binding at 10 µM [28]: 100% | remaining binding at 10 µM [29]: 95% | remaining binding at 10 µM [30]: 85% | remaining binding at 10 µM [31]: 99% | remaining binding at 10 µM [32]: 94% | remaining binding at 10 µM [33]: 100% | remaining binding at 10 µM [34]: 100% | remaining binding at 10 µM [35]: 89% | remaining binding at 10 µM [36]: 84% | remaining binding at 10 µM [37]: 83% | remaining binding at 10 µM [38]: 100%
